Where a name gives a salt, the structure may show the parent alone. Read-outs that look alike come from different tables or passages of the source.
Legend:
[1] = system: fibrin-induced microglia activation; experiment: Image-based assay of fibrin-induced microglia activation (HTS and dose response); type: cell-based, rat; details: primary microglia HTS, fibrin stimulation; for inhibition at 10 µM: Rattus norvegicus, Microglia, read-out: Fibrin % inhibition
[2] = system: LPS-induced microglia activation; experiment: Image-based assay of LPS-induced microglia activation (HTS and dose response); type: cell-based, rat; details: for inhibition at 10 µM: Rattus norvegicus, Microglia, read-out: LPS % inhibition
[3] = system: fibrin- and LPS-induced microglia activation; experiment: cells; type: cell-based, rat
[4] = system: primary rat microglia
[5] = system: primary rat microglia; experiment: Cell toxicity (dead cells, size <150 μm2) in coated fibrin (cFib) assay; details: primary microglia HTS;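 also: share of dead cells sized under 150 µm2 at 10 µM in fibrin-stimulated microglia HTS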
[6] = primary microglia HTS, LPS stimulation, compounds at 10 μM
[7] = classification by fibrin and LPS inhibition, HTS at 10 μM
[8] = fibrin assay, dead cells (size <150 μm2), compounds at 10 μM
[9] = quadrant by fibrin and LPS inhibition, HTS at 10 μM
[10] = fibrin assay, dead cells (size <150 μm2)
[11] = cell size >800 μm2 as marker of activation
[12] = classification by fibrin and LPS inhibition in HTS
[13] = fibrin stimulation, cell size <150 μm2 as marker of toxicity

O=C(O)CCC(=O)c1ccc(-c2ccccc2)cc1 [Fenbufen]
inhibition at 10 µM ([1]; compounds at 10 μM): 3% | inhibition at 10 µM [2, 6]: 25% | Quadrant (FIG. 5b) [3, 7]: Q4 | LPS % cell toxicity ([4]; rat): 0% | Fibrin % cell toxicity [5, 8]: 0%

CCCCC(O)c1ccccc1 (centres unmarked) [Fenipentol]
Fibrin % inhibition ([1]; compounds at 10 μM): −1% | LPS % inhibition [2, 6]: 25% | Quadrant (FIG. 5b) [3, 7]: Q4 | LPS % cell toxicity [4]: 0% | Fibrin % cell toxicity [5, 8]: 1%

C[C@@H]1C[C@H]2[C@@H]3CCC4=CC(=O)C=C[C@]4(C)[C@@]3(Cl)[C@@H](O)C[C@]2(C)[C@@]1(OC(=O)c1ccco1)C(=O)CCl [Mometasone Furoate]
inhibition at 10 µM ([1]; compounds at 10 μM): 100% | inhibition at 10 µM [2, 6]: 106% | Quadrant (FIG. 5b) [3, 9]: Q2 | LPS % cell toxicity ([4]; rat): 4% | Fibrin % cell toxicity [5, 10]: 3%

CC(C)(C)NCC(O)COc1cccc2c1CC(O)C(O)C2 (centres unmarked) [Nadolol]
inhibition at 10 µM ([1]; compounds at 10 μM): 107% | inhibition at 10 µM [2, 6]: 108% | Quadrant (FIG. 5b) [3, 9]: Q2 | LPS % cell toxicity ([4]; rat): 3% | Fibrin % cell toxicity [5, 10]: 4%

O=C1CC[C@@]2(O)[C@H]3Cc4ccc(O)c5c4[C@@]2(CCN3CC2CC2)[C@H]1O5 [Naltrexone Hydrochloride]
inhibition at 10 µM ([1]; compounds at 10 μM): 107% | inhibition at 10 µM [2, 6]: 79% | Quadrant (FIG. 5b) [3, 9]: Q2 | LPS % cell toxicity ([4]; rat): 2% | Fibrin % cell toxicity [5, 10]: 4%

Cc1c(NC(=O)c2cccnc2)c(=O)n(-c2ccccc2)n1C [Nifenazone]
inhibition at 10 µM ([1]; compounds at 10 μM): 114% | inhibition at 10 µM [2, 6]: 132% | Quadrant (FIG. 5b) [3, 9]: Q2 | LPS % cell toxicity ([4]; rat): 78% | Fibrin % cell toxicity [5, 10]: 85%

O=C(N/N=C/c1ccc([N+](=O)[O-])o1)c1ccc(O)cc1 [Nifuroxazide]
inhibition at 10 µM ([1]; compounds at 10 μM): 112% | inhibition at 10 µM [2, 6]: 120% | Quadrant (FIG. 5b) [3, 9]: Q2 | LPS % cell toxicity ([4]; rat): 14% | Fibrin % cell toxicity [5, 10]: 6%

CCC1(C)OC(=O)N(C)C1=O (centres unmarked) [Paramethadione]
inhibition at 10 µM [1, 11]: -15% | inhibition at 10 µM ([2]; 48 h): 3% | Quadrant (FIG. 5b) [3, 12]: Q4 | LPS % cell toxicity ([4]; rat): 0% | Fibrin % cell toxicity [5, 13]: 0%

C#CCN(C)Cc1ccccc1 [Pargyline]
inhibition at 10 µM [1, 11]: -25% | inhibition at 10 µM ([2]; 48 h): 11% | Quadrant (FIG. 5b) [3, 12]: Q4 | LPS % cell toxicity ([4]; rat): 0% | Fibrin % cell toxicity [5, 13]: 1%

NC[C@@H]1O[C@H](O[C@H]2[C@@H](O)[C@H](O[C@@H]3[C@@H](O)[C@H](N)C[C@H](N)[C@H]3O[C@H]3O[C@H](CO)[C@@H](O)[C@H](O)[C@H]3N)O[C@@H]2CO)[C@H](N)[C@@H](O)[C@@H]1O [Paromomycin Sulfate]
inhibition at 10 µM [1, 11]: 9% | inhibition at 10 µM ([2]; 48 h): 14% | Quadrant (FIG. 5b) [3, 12]: Q4 | LPS % cell toxicity ([4]; rat): 0% | Fibrin % cell toxicity [5, 13]: 1%

CCC(=O)c1ccc(O)cc1 [Paroxypropione]
inhibition at 10 µM [1, 11]: -11% | inhibition at 10 µM ([2]; 48 h): 17% | Quadrant (FIG. 5b) [3, 12]: Q4 | LPS % cell toxicity ([4]; rat): 0% | Fibrin % cell toxicity [5, 13]: 1%

NNC(=O)c1ccncc1.Nc1ccc(C(=O)O)c(O)c1 [Pasiniazid]
Fibrin % inhibition [1, 11]: −61% | LPS % inhibition [2]: 17% | Quadrant (FIG. 5b) [3, 12]: Q4 | LPS % cell toxicity [4]: 0% | Fibrin % cell toxicity [5, 13]: 1%

C[C@H]1COc2c(C3(N)CC3)c(F)cc3c(=O)c(C(=O)O)cn1c23 [Pazufloxacin Mesylate, Pazufloxacin]
Fibrin % inhibition [1, 11]: −10% | LPS % inhibition [2]: 11% | Quadrant (FIG. 5b) [3, 12]: Q4 | LPS % cell toxicity [4]: 0% | Fibrin % cell toxicity [5, 13]: 1%

CN1C(C)(C)CCCC1(C)C [Pempidine Tartrate]
inhibition at 10 µM [1, 11]: -19% | inhibition at 10 µM ([2]; 48 h): 13% | Quadrant (FIG. 5b) [3, 12]: Q4 | LPS % cell toxicity ([4]; rat): 0% | Fibrin % cell toxicity [5, 13]: 1%

Nc1nc2c(ncn2CCC(CO)CO)c(=O)[nH]1 [Penciclovir]
inhibition at 10 µM [1, 11]: -44% | inhibition at 10 µM ([2]; 48 h): 4% | Quadrant (FIG. 5b) [3, 12]: Q4 | LPS % cell toxicity ([4]; rat): 0% | Fibrin % cell toxicity [5, 13]: 1%

OC1(c2ccc(Cl)c(C(F)(F)F)c2)CCN(CCCC(c2ccc(F)cc2)c2ccc(F)cc2)CC1 [Penfluridol]
inhibition at 10 µM [1, 11]: 3% | inhibition at 10 µM ([2]; 48 h, primary microglia HTS, LPS stimulation, cell size >800 μm2 as marker of activation): 8% | Quadrant (FIG. 5b) [3, 12]: Q4 | LPS % cell toxicity ([4]; rat): 0% | Fibrin % cell toxicity [5, 13]: 1%

C1CCc2nnnn2CC1 [Pentetrazole, Pentylenetetrazol]
Fibrin % inhibition [1, 11]: −12% | LPS % inhibition [2]: 18% | Quadrant (FIG. 5b) [3, 12]: Q4 | LPS % cell toxicity [4]: 1% | Fibrin % cell toxicity [5, 13]: 1%

CCCN1C[C@H](CSC)C[C@@H]2c3cccc4[nH]cc(c34)C[C@H]21 [Pergolide]
inhibition at 10 µM [1, 11]: -18% | inhibition at 10 µM ([2]; 48 h): 16% | Quadrant (FIG. 5b) [3, 12]: Q4 | LPS % cell toxicity ([4]; rat): 0% | Fibrin % cell toxicity [5, 13]: 0%

CCC[C@H](N[C@@H](C)C(=O)N1[C@H](C(=O)O)C[C@@H]2CCCC[C@@H]21)C(=O)OCC [Perindopril]
inhibition at 10 µM [1, 11]: -27% | inhibition at 10 µM ([2]; 48 h): 18% | Quadrant (FIG. 5b) [3, 12]: Q4 | LPS % cell toxicity ([4]; rat): 0% | Fibrin % cell toxicity [5, 13]: 0%

CC1(C)C(C=C(Cl)Cl)C1C(=O)OCc1cccc(Oc2ccccc2)c1 (centres unmarked) [Permethrin]
inhibition at 10 µM [1, 11]: -21% | inhibition at 10 µM ([2]; 48 h): 11% | Quadrant (FIG. 5b) [3, 12]: Q4 | LPS % cell toxicity ([4]; rat): 0% | Fibrin % cell toxicity [5, 13]: 0%

OCCN1CCN(CCCN2c3ccccc3Sc3ccc(Cl)cc32)CC1 [Perphenazine]
inhibition at 10 µM [1, 11]: 23% | inhibition at 10 µM ([2]; 48 h): 23% | Quadrant (FIG. 5b) [3, 12]: Q4 | LPS % cell toxicity ([4]; rat): 1% | Fibrin % cell toxicity [5, 13]: 1%

CCOc1ccc(NC(C)=O)cc1 [Phenacetin]
inhibition at 10 µM [1, 11]: -5% | inhibition at 10 µM ([2]; 48 h): 16% | Quadrant (FIG. 5b) [3, 12]: Q4 | LPS % cell toxicity ([4]; rat): 0% | Fibrin % cell toxicity [5, 13]: 1%

Nc1ccc(/N=N/c2ccccc2)c(N)n1 [Phenazopyridine]
inhibition at 10 µM [1, 11]: 9% | inhibition at 10 µM ([2]; 48 h): 6% | Quadrant (FIG. 5b) [3, 12]: Q4 | LPS % cell toxicity ([4]; rat): 0% | Fibrin % cell toxicity [5, 13]: 0%

CC(Oc1ccccc1)C(=O)N[C@@H]1C(=O)N2[C@@H]1SC(C)(C)[C@@H]2C(=O)O (some centres unmarked) [Phenethicillin Potassium]
inhibition at 10 µM [1, 11]: -2% | inhibition at 10 µM ([2]; 48 h): 3% | Quadrant (FIG. 5b) [3, 12]: Q4 | LPS % cell toxicity ([4]; rat): 0% | Fibrin % cell toxicity [5, 13]: 0%

O=C1c2ccccc2C(=O)C1c1ccccc1 [Phenindione]
inhibition at 10 µM [1, 11]: -10% | inhibition at 10 µM ([2]; 48 h): 0% | Quadrant (FIG. 5b) [3, 12]: Q4 | LPS % cell toxicity ([4]; rat): 0% | Fibrin % cell toxicity [5, 13]: 1%

CCC1(c2ccccc2)C(=O)NC(=O)NC1=O [Phenobarbital]
inhibition at 10 µM [1, 11]: -22% | inhibition at 10 µM ([2]; 48 h): -7% | Quadrant (FIG. 5b) [3, 12]: Q4 | LPS % cell toxicity ([4]; rat): 0% | Fibrin % cell toxicity [5, 13]: 0%

O=C1OC(c2ccc(O)cc2)(c2ccc(O)cc2)c2ccccc21 [Phenolphthalein]
inhibition at 10 µM [1, 11]: 10% | inhibition at 10 µM ([2]; 48 h): 13% | Quadrant (FIG. 5b) [3, 12]: Q4 | LPS % cell toxicity ([4]; rat): 0% | Fibrin % cell toxicity [5, 13]: 1%

c1ccc2c(c1)Nc1ccccc1S2 [Phenothiazine]
inhibition at 10 µM [1, 11]: -84% | inhibition at 10 µM ([2]; 48 h): 24% | Quadrant (FIG. 5b) [3, 12]: Q4 | LPS % cell toxicity ([4]; rat): 1% | Fibrin % cell toxicity [5, 13]: 0%
